Tested on: transgenic soybean plants
Assay: Detection of the herbicide tolerance of the transgenic soybean plants
Assay type: in vivo
Parameters: key to damage levels rated at grade: grade 0 means that the growth status of plants is essentially consistent with those sprayed with the blank solvent (water); grade 1 means that the average of the damage levels of plants is less than 10%; grade 2 means that the average of the damage levels of plants is greater than 10%; grade 3 means that the average of the damage levels of plants is 100%
Conditions: for The grade of pesticide damage/plant: 0 / The grade of pesticide damage/plant: 1 / The grade of pesticide damage/plant: 2 / The grade of pesticide damage/plant: 3: 7 DAT
[1] = genotype Control vector, 50 g ai/ha
[2] = genotype Control vector, 100 g ai/ha
[3] = genotype PPO-AP-01, 100 g ai/ha
[4] = genotype PPO-EC-01, 100 g ai/ha

CC(C)N(C)S(=O)(=O)NC(=O)c1cc(-n2c(=O)cc(C(F)(F)F)n(C)c2=O)c(F)cc1Cl [saflufenacil, N′-[2-chloro-4-fluoro-5-(3-methyl-2,6-dioxo-4-(trifluoromethyl)-3,6-dihydro-1 (2H)-pyrimidine)benzoyl]-N-isopropyl-N-methylsulfamide]
The grade of pesticide damage/plant: 0 (genotype CK, 50 g ai/ha): 0 plant
The grade of pesticide damage/plant: 1 (genotype CK, 50 g ai/ha): 0 plant
The grade of pesticide damage/plant: 2 (genotype CK, 50 g ai/ha): 0 plant
The grade of pesticide damage/plant: 3 (genotype CK, 50 g ai/ha): 16 plant
The grade of pesticide damage/plant: 0 (genotype CK, 100 g ai/ha): 0 plant
The grade of pesticide damage/plant: 1 (genotype CK, 100 g ai/ha): 0 plant
The grade of pesticide damage/plant: 2 (genotype CK, 100 g ai/ha): 0 plant
The grade of pesticide damage/plant: 3 (genotype CK, 100 g ai/ha): 16 plant
The grade of pesticide damage/plant: 0 [1]: 0 plant
The grade of pesticide damage/plant: 1 [1]: 0 plant
The grade of pesticide damage/plant: 2 [1]: 0 plant
The grade of pesticide damage/plant: 3 [1]: 16 plant
The grade of pesticide damage/plant: 0 [2]: 0 plant
The grade of pesticide damage/plant: 1 [2]: 0 plant
The grade of pesticide damage/plant: 2 [2]: 0 plant
The grade of pesticide damage/plant: 3 [2]: 16 plant
The grade of pesticide damage/plant: 0 (genotype PPO-AP-01, 50 g ai/ha): 0 plant
The grade of pesticide damage/plant: 1 (genotype PPO-AP-01, 50 g ai/ha): 0 plant
The grade of pesticide damage/plant: 2 (genotype PPO-AP-01, 50 g ai/ha): 8 plant
The grade of pesticide damage/plant: 3 (genotype PPO-AP-01, 50 g ai/ha): 8 plant
The grade of pesticide damage/plant: 0 [3]: 0 plant
The grade of pesticide damage/plant: 1 [3]: 0 plant
The grade of pesticide damage/plant: 2 [3]: 0 plant
The grade of pesticide damage/plant: 3 [3]: 16 plant
tolerance to the herbicide (in words) (genotype PPO-AP-01, at different concentrations): basically no tolerance
The grade of pesticide damage/plant: 0 (genotype PPO-EC-01, 50 g ai/ha): 9 plant
The grade of pesticide damage/plant: 1 (genotype PPO-EC-01, 50 g ai/ha): 7 plant
The grade of pesticide damage/plant: 2 (genotype PPO-EC-01, 50 g ai/ha): 0 plant
The grade of pesticide damage/plant: 3 (genotype PPO-EC-01, 50 g ai/ha): 0 plant
The grade of pesticide damage/plant: 0 [4]: 8 plant
The grade of pesticide damage/plant: 1 [4]: 3 plant
The grade of pesticide damage/plant: 2 [4]: 5 plant
The grade of pesticide damage/plant: 3 [4]: 0 plant
share of the plants that exhibited moderate- or poor-resistant tolerance (genotype PPO-EC-01, four-fold field concentration): about 32%
share of the plants rated at grade 1 (genotype PPO-EC-01, two-fold field concentration): about 44%
The grade of pesticide damage/plant: 0 (genotype PPOA-01, 50 g ai/ha): 16 plant
The grade of pesticide damage/plant: 1 (genotype PPOA-01, 50 g ai/ha): 0 plant
The grade of pesticide damage/plant: 2 (genotype PPOA-01, 50 g ai/ha): 0 plant
The grade of pesticide damage/plant: 3 (genotype PPOA-01, 50 g ai/ha): 0 plant
The grade of pesticide damage/plant: 0 (genotype PPOA-01, 100 g ai/ha): 16 plant
The grade of pesticide damage/plant: 1 (genotype PPOA-01, 100 g ai/ha): 0 plant
The grade of pesticide damage/plant: 2 (genotype PPOA-01, 100 g ai/ha): 0 plant
The grade of pesticide damage/plant: 3 (genotype PPOA-01, 100 g ai/ha): 0 plant
The grade of pesticide damage/plant: 0 (genotype PPOB-01, 50 g ai/ha): 16 plant
The grade of pesticide damage/plant: 1 (genotype PPOB-01, 50 g ai/ha): 0 plant
The grade of pesticide damage/plant: 2 (genotype PPOB-01, 50 g ai/ha): 0 plant
The grade of pesticide damage/plant: 3 (genotype PPOB-01, 50 g ai/ha): 0 plant
The grade of pesticide damage/plant: 0 (genotype PPOB-01, 100 g ai/ha): 16 plant
The grade of pesticide damage/plant: 1 (genotype PPOB-01, 100 g ai/ha): 0 plant
The grade of pesticide damage/plant: 2 (genotype PPOB-01, 100 g ai/ha): 0 plant
The grade of pesticide damage/plant: 3 (genotype PPOB-01, 100 g ai/ha): 0 plant
The grade of pesticide damage/plant: 0 (genotype PPOC-01, 50 g ai/ha): 16 plant
The grade of pesticide damage/plant: 1 (genotype PPOC-01, 50 g ai/ha): 0 plant
The grade of pesticide damage/plant: 2 (genotype PPOC-01, 50 g ai/ha): 0 plant
The grade of pesticide damage/plant: 3 (genotype PPOC-01, 50 g ai/ha): 0 plant
The grade of pesticide damage/plant: 0 (genotype PPOC-01, 100 g ai/ha): 16 plant
The grade of pesticide damage/plant: 1 (genotype PPOC-01, 100 g ai/ha): 0 plant
The grade of pesticide damage/plant: 2 (genotype PPOC-01, 100 g ai/ha): 0 plant
The grade of pesticide damage/plant: 3 (genotype PPOC-01, 100 g ai/ha): 0 plant
The grade of pesticide damage/plant: 0 (genotype PPOD-01, 50 g ai/ha): 16 plant
The grade of pesticide damage/plant: 1 (genotype PPOD-01, 50 g ai/ha): 0 plant
The grade of pesticide damage/plant: 2 (genotype PPOD-01, 50 g ai/ha): 0 plant
The grade of pesticide damage/plant: 3 (genotype PPOD-01, 50 g ai/ha): 0 plant
The grade of pesticide damage/plant: 0 (genotype PPOD-01, 100 g ai/ha): 16 plant
The grade of pesticide damage/plant: 1 (genotype PPOD-01, 100 g ai/ha): 0 plant
The grade of pesticide damage/plant: 2 (genotype PPOD-01, 100 g ai/ha): 0 plant
The grade of pesticide damage/plant: 3 (genotype PPOD-01, 100 g ai/ha): 0 plant
The grade of pesticide damage/plant: 0 (genotype PPOE-01, 50 g ai/ha): 16 plant
The grade of pesticide damage/plant: 1 (genotype PPOE-01, 50 g ai/ha): 0 plant
The grade of pesticide damage/plant: 2 (genotype PPOE-01, 50 g ai/ha): 0 plant
The grade of pesticide damage/plant: 3 (genotype PPOE-01, 50 g ai/ha): 0 plant
The grade of pesticide damage/plant: 0 (genotype PPOE-01, 100 g ai/ha): 15 plant
The grade of pesticide damage/plant: 1 (genotype PPOE-01, 100 g ai/ha): 1 plant
The grade of pesticide damage/plant: 2 (genotype PPOE-01, 100 g ai/ha): 0 plant
The grade of pesticide damage/plant: 3 (genotype PPOE-01, 100 g ai/ha): 0 plant
The grade of pesticide damage/plant: 0 (genotype PPOF-01, 50 g ai/ha): 16 plant
The grade of pesticide damage/plant: 1 (genotype PPOF-01, 50 g ai/ha): 0 plant
The grade of pesticide damage/plant: 2 (genotype PPOF-01, 50 g ai/ha): 0 plant
The grade of pesticide damage/plant: 3 (genotype PPOF-01, 50 g ai/ha): 0 plant
The grade of pesticide damage/plant: 0 (genotype PPOF-01, 100 g ai/ha): 16 plant
The grade of pesticide damage/plant: 1 (genotype PPOF-01, 100 g ai/ha): 0 plant
The grade of pesticide damage/plant: 2 (genotype PPOF-01, 100 g ai/ha): 0 plant
The grade of pesticide damage/plant: 3 (genotype PPOF-01, 100 g ai/ha): 0 plant
tolerance to the herbicide (in words) (genotypes PPOA-01 to PPOF-01, four-fold field concentration): high-resistant tolerance
damage levels rated at grade (genotypes PPOA-01 to PPOF-01, two-fold field concentration): 0
tolerance to the herbicide (in words) (genotypes PPOA-01 to PPOF-01 and PPO-EC-01, compared with the control vector and CK): different extents of tolerance

Reference: patent publication US20250275540A1, “USE OF PROTOPORPHYRINOGEN OXIDASE” (BEIJING DABEINONG BIOTECHNOLOGY CO., LTD., priority 2022, published 2025)
